In US20220378790A1, “PHARMACEUTICAL PREPARATION COMPRISING AN AMIDE DERIVATIVE INHIBITING THE GROWTH OF CANCER CELL AND A PHARMACEUTICAL PRODUCT CONTAINING THE SAME” (Hanmi Pharm Co., Ltd., priority 2019, published 2022):

Experiment: Stability test at 60° C. severe condition, impurity IV
Assay type: physicochemical
Protocol: The stability of the tablets of Examples 6 to 9 and Comparative Example 9 above was evaluated. In addition, the stability was evaluated using HM781-36B itself as Comparative Example 11.
Specifically, each of the tablets of Examples 6 to 9 and Comparative Example 9 above was packaged with Formpack® Dessiflex Blister (where to get: amcor), and the HM781-36B of Comparative Example 11 was packaged in an HDPE bottle, and then these were stored for 1, 2, and 4 weeks at a temperature of 60° C., which is a severe condition. The stability evaluation was performed for the samples stored for the above period according to the analysis conditions of Experimental Example 6.

Amount of Impurity IV (1 week, 60° C.): 0.06%
Amount of Impurity IV (2 weeks, 60° C.): 0.07%
Stability (in words) (4 weeks under severe conditions, 60° C.): very stable results
Amount of Impurity IV (4 weeks, 60° C.): 0.07%
Amount of Impurity IV (Initial, tablets in Formpack Dessiflex Blister, HM781-36B in HDPE bottle): 0.06%
Structure (SMILES): C=CC(=O)N1CCC(Oc2cc3c(Nc4ccc(Cl)c(Cl)c4F)ncnc3cc2OC)CC1 [Comparative Example 11]
